The record followed here is PubChem BioAssay AID1963860 (Molecular Pharmacology Branch, DTP, NCI, 2024).
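Also: spheroids exposed to agents for 7 days.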

The subject of one experiment is CN0375-F725-PDC KRAS spheroid viability. Description: Anticancer human tumor CN0375-F725-PDC patient-derived colon carcinoma cell line growth inhibition [KRAS2]. The conditions noted are these: second compound 0.1 µM; first compound 0.316 µM; active compounds read low; spheroids with HUVEC and MSC. In outline: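 KRAS-mutant tumor cells were grown as spheroids with HUVEC endothelial cells and human MSCs as stroma. Targeted agents were tested alone and with KRAS pathway inhibitors. Doses started at or near clinical Cmax, or 10 microM, descending half-log.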
As a reminder, the viability, T/C is the result in the treated group divided by that in the control group, in per cent. On to `CC(C)NCC(C(=O)N1CCN(c2ncnc3c2C(C)CC3O)CC1)c1ccc(Cl)cc1` (configuration not stated) + CC1OCC2(CCN(c3cnc(Sc4ccnc(N)c4Cl)c(N)n3)CC2)C1N, for which the viability, T/C was 94.4%.
With `COc1cc2nccc(Oc3ccc(NC(=O)C4(C(=O)Nc5ccc(F)cc5)CC4)cc3)c2cc1OC` + C=CC(=O)N1CCN(c2nc(=O)n(-c3c(C)ccnc3C(C)C)c3nc(-c4c(O)cccc4F)c(F)cc23)C(C)C1, the viability, T/C was 96.3%.

Still in this experiment, the particulars now being: second compound 0.1 µM; first compound 1 µM; active compounds read low; spheroids with HUVEC and MSC.
For `COc1cc(Nc2ncc3c(n2)-c2ccc(Cl)cc2C(c2c(F)cccc2OC)=NC3)ccc1C(=O)O` + COc1cc2nc(C)nc(NC(C)c3cc(N)cc(C(F)(F)F)c3)c2cc1OC1CCOC1, the viability, T/C is 88.2%.
The same measure, in the same setting: under `CC1OCC2(CCN(c3cnc(Sc4ccnc(N)c4Cl)c(N)n3)CC2)C1N` (configuration not stated) + COc1cc2nc(C)nc(NC(C)c3cc(N)cc(C(F)(F)F)c3)c2cc1OC1CCOC1 stands 81.2%.
Same read-out and setting: under `CC(C)NCC(C(=O)N1CCN(c2ncnc3c2C(C)CC3O)CC1)c1ccc(Cl)cc1` (configuration not stated) + CC1OCC2(CCN(c3cnc(Sc4ccnc(N)c4Cl)c(N)n3)CC2)C1N stands 88.7%; under `COc1cc2nccc(Oc3ccc(NC(=O)C4(C(=O)Nc5ccc(F)cc5)CC4)cc3)c2cc1OC` + C=CC(=O)N1CCN(c2nc(=O)n(-c3c(C)ccnc3C(C)C)c3nc(-c4c(O)cccc4F)c(F)cc23)C(C)C1, 89%.

Staying with this experiment, now noted: second compound 0.1 µM; first compound 3.16 µM; active compounds read low; spheroids with HUVEC and MSC.
With `COc1cc(Nc2ncc3c(n2)-c2ccc(Cl)cc2C(c2c(F)cccc2OC)=NC3)ccc1C(=O)O` + COc1cc2nc(C)nc(NC(C)c3cc(N)cc(C(F)(F)F)c3)c2cc1OC1CCOC1, the viability, T/C was 87.3%.
The same measure, in the same setting: under `CC1OCC2(CCN(c3cnc(Sc4ccnc(N)c4Cl)c(N)n3)CC2)C1N` (configuration not stated) + COc1cc2nc(C)nc(NC(C)c3cc(N)cc(C(F)(F)F)c3)c2cc1OC1CCOC1 stands 76%; under `CC(C)NCC(C(=O)N1CCN(c2ncnc3c2C(C)CC3O)CC1)c1ccc(Cl)cc1` (configuration not stated) + CC1OCC2(CCN(c3cnc(Sc4ccnc(N)c4Cl)c(N)n3)CC2)C1N, 87.7%; under `COc1cc2nccc(Oc3ccc(NC(=O)C4(C(=O)Nc5ccc(F)cc5)CC4)cc3)c2cc1OC` + C=CC(=O)N1CCN(c2nc(=O)n(-c3c(C)ccnc3C(C)C)c3nc(-c4c(O)cccc4F)c(F)cc23)C(C)C1, 63.5%.

Staying with this experiment, now noted: second compound 0.1 µM; first compound 10 µM; active compounds read low; spheroids with HUVEC and MSC.
For the molecule `COc1cc(Nc2ncc3c(n2)-c2ccc(Cl)cc2C(c2c(F)cccc2OC)=NC3)ccc1C(=O)O` + COc1cc2nc(C)nc(NC(C)c3cc(N)cc(C(F)(F)F)c3)c2cc1OC1CCOC1, the viability, T/C was 71.8%.
Turning to `CC1OCC2(CCN(c3cnc(Sc4ccnc(N)c4Cl)c(N)n3)CC2)C1N` (configuration not stated) + COc1cc2nc(C)nc(NC(C)c3cc(N)cc(C(F)(F)F)c3)c2cc1OC1CCOC1, the viability, T/C was 70.7%.
`CC(C)NCC(C(=O)N1CCN(c2ncnc3c2C(C)CC3O)CC1)c1ccc(Cl)cc1` (configuration not stated) + CC1OCC2(CCN(c3cnc(Sc4ccnc(N)c4Cl)c(N)n3)CC2)C1N: the viability, T/C is 71.7%.
On the same count and under the same terms, the same measure for `COc1cc2nccc(Oc3ccc(NC(=O)C4(C(=O)Nc5ccc(F)cc5)CC4)cc3)c2cc1OC` + C=CC(=O)N1CCN(c2nc(=O)n(-c3c(C)ccnc3C(C)C)c3nc(-c4c(O)cccc4F)c(F)cc23)C(C)C1: 74.1%.

The same experiment, now with this note: second compound 0.316 µM; first compound 0.0316 µM; active compounds read low; spheroids with HUVEC and MSC.
As to `COc1cc(Nc2ncc3c(n2)-c2ccc(Cl)cc2C(c2c(F)cccc2OC)=NC3)ccc1C(=O)O` + COc1cc2nc(C)nc(NC(C)c3cc(N)cc(C(F)(F)F)c3)c2cc1OC1CCOC1, the viability, T/C was 97%.
Still for that read-out and setting: under `CC1OCC2(CCN(c3cnc(Sc4ccnc(N)c4Cl)c(N)n3)CC2)C1N` (configuration not stated) + COc1cc2nc(C)nc(NC(C)c3cc(N)cc(C(F)(F)F)c3)c2cc1OC1CCOC1 stands 90.5%; under `CC(C)NCC(C(=O)N1CCN(c2ncnc3c2C(C)CC3O)CC1)c1ccc(Cl)cc1` (configuration not stated) + CC1OCC2(CCN(c3cnc(Sc4ccnc(N)c4Cl)c(N)n3)CC2)C1N, 93.6%; under `COc1cc2nccc(Oc3ccc(NC(=O)C4(C(=O)Nc5ccc(F)cc5)CC4)cc3)c2cc1OC` + C=CC(=O)N1CCN(c2nc(=O)n(-c3c(C)ccnc3C(C)C)c3nc(-c4c(O)cccc4F)c(F)cc23)C(C)C1, 113%.

The same experiment, now with this note: second compound 0.316 µM; first compound 0.1 µM; active compounds read low; spheroids with HUVEC and MSC.
As to `COc1cc(Nc2ncc3c(n2)-c2ccc(Cl)cc2C(c2c(F)cccc2OC)=NC3)ccc1C(=O)O` + COc1cc2nc(C)nc(NC(C)c3cc(N)cc(C(F)(F)F)c3)c2cc1OC1CCOC1, the viability, T/C is 97.6%.
Take `CC1OCC2(CCN(c3cnc(Sc4ccnc(N)c4Cl)c(N)n3)CC2)C1N` (configuration not stated) + COc1cc2nc(C)nc(NC(C)c3cc(N)cc(C(F)(F)F)c3)c2cc1OC1CCOC1: the viability, T/C was 91.7%.
The same measure, in the same setting: the same measure for `CC(C)NCC(C(=O)N1CCN(c2ncnc3c2C(C)CC3O)CC1)c1ccc(Cl)cc1` (configuration not stated) + CC1OCC2(CCN(c3cnc(Sc4ccnc(N)c4Cl)c(N)n3)CC2)C1N: 93.5%; for `COc1cc2nccc(Oc3ccc(NC(=O)C4(C(=O)Nc5ccc(F)cc5)CC4)cc3)c2cc1OC` + C=CC(=O)N1CCN(c2nc(=O)n(-c3c(C)ccnc3C(C)C)c3nc(-c4c(O)cccc4F)c(F)cc23)C(C)C1: 102%.

The same experiment, now with this note: second compound 0.316 µM; first compound 0.316 µM; active compounds read low; spheroids with HUVEC and MSC.
For `COc1cc(Nc2ncc3c(n2)-c2ccc(Cl)cc2C(c2c(F)cccc2OC)=NC3)ccc1C(=O)O` + COc1cc2nc(C)nc(NC(C)c3cc(N)cc(C(F)(F)F)c3)c2cc1OC1CCOC1, the viability, T/C is 90.5%.
Regarding `CC1OCC2(CCN(c3cnc(Sc4ccnc(N)c4Cl)c(N)n3)CC2)C1N` (configuration not stated) + COc1cc2nc(C)nc(NC(C)c3cc(N)cc(C(F)(F)F)c3)c2cc1OC1CCOC1, the viability, T/C was 73.3%.
The same measure, in the same setting: under `CC(C)NCC(C(=O)N1CCN(c2ncnc3c2C(C)CC3O)CC1)c1ccc(Cl)cc1` (configuration not stated) + CC1OCC2(CCN(c3cnc(Sc4ccnc(N)c4Cl)c(N)n3)CC2)C1N stands 89.9%; under `COc1cc2nccc(Oc3ccc(NC(=O)C4(C(=O)Nc5ccc(F)cc5)CC4)cc3)c2cc1OC` + C=CC(=O)N1CCN(c2nc(=O)n(-c3c(C)ccnc3C(C)C)c3nc(-c4c(O)cccc4F)c(F)cc23)C(C)C1, 92%.

The experiment is the same for the next values; noted with them: second compound 0.316 µM; first compound 1 µM; active compounds read low; spheroids with HUVEC and MSC.
In the case of `COc1cc(Nc2ncc3c(n2)-c2ccc(Cl)cc2C(c2c(F)cccc2OC)=NC3)ccc1C(=O)O` + COc1cc2nc(C)nc(NC(C)c3cc(N)cc(C(F)(F)F)c3)c2cc1OC1CCOC1, the viability, T/C was 87.8%.
On to `CC1OCC2(CCN(c3cnc(Sc4ccnc(N)c4Cl)c(N)n3)CC2)C1N` (configuration not stated) + COc1cc2nc(C)nc(NC(C)c3cc(N)cc(C(F)(F)F)c3)c2cc1OC1CCOC1, for which the viability, T/C is 77.8%.
As to `CC(C)NCC(C(=O)N1CCN(c2ncnc3c2C(C)CC3O)CC1)c1ccc(Cl)cc1` (configuration not stated) + CC1OCC2(CCN(c3cnc(Sc4ccnc(N)c4Cl)c(N)n3)CC2)C1N, the viability, T/C is 82%.
Same read-out and setting: the same measure for `COc1cc2nccc(Oc3ccc(NC(=O)C4(C(=O)Nc5ccc(F)cc5)CC4)cc3)c2cc1OC` + C=CC(=O)N1CCN(c2nc(=O)n(-c3c(C)ccnc3C(C)C)c3nc(-c4c(O)cccc4F)c(F)cc23)C(C)C1: 85.4%.

The experiment is the same for the next values; noted with them: second compound 0.316 µM; first compound 3.16 µM; active compounds read low; spheroids with HUVEC and MSC.
For `COc1cc(Nc2ncc3c(n2)-c2ccc(Cl)cc2C(c2c(F)cccc2OC)=NC3)ccc1C(=O)O` + COc1cc2nc(C)nc(NC(C)c3cc(N)cc(C(F)(F)F)c3)c2cc1OC1CCOC1, the viability, T/C was 83.1%.
On to `CC1OCC2(CCN(c3cnc(Sc4ccnc(N)c4Cl)c(N)n3)CC2)C1N` (configuration not stated) + COc1cc2nc(C)nc(NC(C)c3cc(N)cc(C(F)(F)F)c3)c2cc1OC1CCOC1, for which the viability, T/C is 71%.
As for `CC(C)NCC(C(=O)N1CCN(c2ncnc3c2C(C)CC3O)CC1)c1ccc(Cl)cc1` (configuration not stated) + CC1OCC2(CCN(c3cnc(Sc4ccnc(N)c4Cl)c(N)n3)CC2)C1N, the viability, T/C is 81.6%.
On the same count and under the same terms, under `COc1cc2nccc(Oc3ccc(NC(=O)C4(C(=O)Nc5ccc(F)cc5)CC4)cc3)c2cc1OC` + C=CC(=O)N1CCN(c2nc(=O)n(-c3c(C)ccnc3C(C)C)c3nc(-c4c(O)cccc4F)c(F)cc23)C(C)C1 stands 63.8%.

Staying with this experiment, now noted: second compound 0.316 µM; first compound 10 µM; active compounds read low; spheroids with HUVEC and MSC.
`COc1cc(Nc2ncc3c(n2)-c2ccc(Cl)cc2C(c2c(F)cccc2OC)=NC3)ccc1C(=O)O` + COc1cc2nc(C)nc(NC(C)c3cc(N)cc(C(F)(F)F)c3)c2cc1OC1CCOC1: the viability, T/C is 71.8%.
Consider `CC1OCC2(CCN(c3cnc(Sc4ccnc(N)c4Cl)c(N)n3)CC2)C1N` (configuration not stated) + COc1cc2nc(C)nc(NC(C)c3cc(N)cc(C(F)(F)F)c3)c2cc1OC1CCOC1, for which the viability, T/C was 60.6%.
Still for that read-out and setting: under `CC(C)NCC(C(=O)N1CCN(c2ncnc3c2C(C)CC3O)CC1)c1ccc(Cl)cc1` (configuration not stated) + CC1OCC2(CCN(c3cnc(Sc4ccnc(N)c4Cl)c(N)n3)CC2)C1N stands 70.8%.
